{"source": "patent US4622293A", "about": "“Iodothyronine immunoassays employing HMS as TBP blocking agent” (Miles Laboratories, Inc., priority 1983, dated 1986)", "key": {"apo(glucose oxidase)": {"biological_target": "apo(glucose oxidase) (Aspergillus niger, UniProt P13006)", "sequence (P13006 17-605)": "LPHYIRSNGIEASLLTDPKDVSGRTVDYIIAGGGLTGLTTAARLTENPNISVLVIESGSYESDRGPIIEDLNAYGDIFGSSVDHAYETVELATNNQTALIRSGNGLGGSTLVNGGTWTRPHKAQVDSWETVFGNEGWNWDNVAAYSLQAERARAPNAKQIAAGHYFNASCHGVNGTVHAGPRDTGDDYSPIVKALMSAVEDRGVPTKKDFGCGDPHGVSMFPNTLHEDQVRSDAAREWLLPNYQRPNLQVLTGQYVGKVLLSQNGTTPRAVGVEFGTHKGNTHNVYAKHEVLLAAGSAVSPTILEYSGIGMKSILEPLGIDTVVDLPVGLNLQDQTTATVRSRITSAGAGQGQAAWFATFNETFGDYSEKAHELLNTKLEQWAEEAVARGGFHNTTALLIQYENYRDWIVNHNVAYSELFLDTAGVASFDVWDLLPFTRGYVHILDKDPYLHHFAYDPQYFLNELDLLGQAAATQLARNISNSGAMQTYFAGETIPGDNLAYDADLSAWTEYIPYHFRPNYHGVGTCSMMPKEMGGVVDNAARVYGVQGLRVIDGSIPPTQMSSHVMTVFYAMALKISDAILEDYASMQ", "assay": "Effect of HMS on the activation of apo(glucose oxidase) by an FAD-labeled thyroxine conjugate", "assay_type": "biochemical", "details": "37° C, pH 6.5, five minute incubation, read-out: % Activity (absorbance at 520 nm as percentage of that with no HMS)", "procedure": "The activation of apoglucose oxidase was set up with different concentrations of HMS and performed at 37° C. Assays containing 50 mM sodium phosphate, pH 6.5, 200 mM glucose, 2.0 mM sodium dichlorohydroxybenzene sulfonate (DHSA), 25 μg/mL peroxidase, various concentrations of HMS and 2.5 nM final concentration of a FAD-thyroxine conjugate (see U.S. Pat. No. 4,213,893) were started by adding apo(glucose oxidase), 4-aminoantipyrine, and anti(glucose oxidase) at final concentrations of 125 nM, 400 μM, and 8 μL/mL respectively. The absorbance at 520 nm was recorded after a five minute incubation. The data are presented in Table 3 as a percentage of the absorbance recorded when no HMS is present."}, "[1]": {"assay": "Water solubility (statement)", "assay_type": "physicochemical"}, "[2]": {"test_system": "human serum proteins (thyroxine binding proteins, TBP)", "assay": "Dissociation of 125I-thyroxine from human serum proteins by HMS (Sephadex column)", "details": "for Percent Dissociated in 5 Minutes / Percent Dissociated in 30 Minutes: pH 6.0, room temperature", "procedure": "Radioactive iodine-labeled thyroxine (^125 I-thyroxine obtained from New England Nuclear, Boston, MA USA) was equilibrated with 3.5 milliliter (mL) of normal human serum for 48 hours at 4° C. Aliquots of this serum [50 microliters (μL)] were added to 450 μL of 0.1 molar (M) sodium phosphate, pH 6.0, containing various concentrations of HMS to give the final concentrations given in Table 1. After 5 or 30 minutes of incubation at room temperature, a 500 μL aliquot was applied to a Sephadex column from a Seralute® thyroxine assay kit (Miles Laboratories, Inc., Ames Division, Elkhart, IN, USA), which has been equilibrated with 0.1 M sodium phosphate, pH 6.0. The total radioactivity applied to the columns was measured and the undissociated material was washed through the column. The columns were counted to determine the percentage of thyroxine dissociated from the serum proteins."}, "serum proteins": {"test_system": "serum proteins", "assay": "Effect of pH on the dissociation of iodothyronine from serum proteins by HMS", "assay_type": "binding", "details": "for % Dissociated: 1.0 mM HMS in MIX solution", "procedure": "Assays were performed in 3 ml polystyrene test tubes in duplicate. A solution (designated \"MIX\") was prepared containing 27 mL of 0.1 M sodium phosphate, at the stated pH, 73 mL of 21% polyethyleneglycol, 1.0 mM HMS, and 10 micrograms (μg) (40 μL) I-125-thyroxine for each 100 mL. Assay solutions are made up by addition of 50 μL of a serum sample, 0.1 mL of anti(thyroxine) antiserum diluted in 0.1 M sodium phosphate (at the given pH) and 1.0 mL of the MIX solution. Assays are included for maximum binding of label and nonspecific binding."}}, "data": [{"smiles": "COc1cc(O)c(C(=O)c2ccccc2)cc1S(=O)(=O)O", "note": "[HMS, 2-hydroxy-4-methoxybenzophenone-5-sulfonic acid]", "values": [{"measurement": "activity at 50 µM", "setting": "apo(glucose oxidase); HMS 0.05 mM", "result": 100, "unit": "%"}, {"measurement": "activity at 100 µM", "setting": "apo(glucose oxidase); HMS 0.10 mM", "result": 100, "unit": "%"}, {"measurement": "activity at 500 µM", "setting": "apo(glucose oxidase); HMS 0.50 mM", "result": 99, "unit": "%"}, {"measurement": "activity at 1000 µM", "setting": "apo(glucose oxidase); HMS 1.00 mM", "result": 97, "unit": "%"}, {"measurement": "activity at 5000 µM", "setting": "apo(glucose oxidase); HMS 5.00 mM", "result": 86, "unit": "%"}, {"measurement": "activity at 10000 µM", "setting": "apo(glucose oxidase); HMS 10.00 mM", "result": 72, "unit": "%"}, {"measurement": "Water solubility", "setting": "[1]", "result": "highly water soluble"}, {"measurement": "Percent Dissociated in 5 Minutes", "setting": "[2]; HMS 1 mM", "result": 65, "unit": "%"}, {"measurement": "Percent Dissociated in 30 Minutes", "setting": "[2]; HMS 1 mM", "result": 73, "unit": "%"}, {"measurement": "Percent Dissociated in 5 Minutes", "setting": "[2]; HMS 2 mM", "result": 74, "unit": "%"}, {"measurement": "Percent Dissociated in 30 Minutes", "setting": "[2]; HMS 2 mM", "result": 84, "unit": "%"}, {"measurement": "Percent Dissociated in 5 Minutes", "setting": "[2]; HMS 4 mM", "result": 91, "unit": "%"}, {"measurement": "Percent Dissociated in 30 Minutes", "setting": "[2]; HMS 4 mM", "result": 94, "unit": "%"}, {"measurement": "Percent Dissociated in 5 Minutes", "setting": "[2]; HMS 6 mM", "result": 93, "unit": "%"}, {"measurement": "Percent Dissociated in 30 Minutes", "setting": "[2]; HMS 6 mM", "result": 95, "unit": "%"}, {"measurement": "Dissociation of TBP-bound iodothyronine", "setting": "[2]; concentration 4 mM", "result": "over 90%"}, {"measurement": "Dissociation of TBP-bound iodothyronine", "setting": "[2]; reaction mixture concentration 1 mM, in a few minutes", "result": "over 50%"}, {"measurement": "% Dissociated", "setting": "serum proteins; pH 6.0", "result": 73, "unit": "%"}, {"measurement": "% Dissociated", "setting": "serum proteins; pH 6.5", "result": 73, "unit": "%"}, {"measurement": "% Dissociated", "setting": "serum proteins; pH 7.0", "result": 69, "unit": "%"}, {"measurement": "% Dissociated", "setting": "serum proteins; pH 7.5", "result": 72, "unit": "%"}, {"measurement": "Effect of pH on the efficiency of dissociation", "setting": "serum proteins; pH range 6.0-7.5", "result": "essentially no effect"}]}]}
